Six compounds from patent US20220372441A1, “MICRORNAS ENRICHED IN MEGAKARYOCYTIC EXTRACELLULAR VESICLES AND USES THEREOF” (University of Delaware, priority 2019, published 2022) can be followed below.

The subject of test [1] is CD34+ HSPCs. Kind of test: Transfection of CD34+ HSPCs with miR mimics, culture without TPO; flow cytometry of CD41/CD42b, Mk and total cell counts. The test is classed as cell-based, human. The protocol: Transfection of CD34^+ HSPCs with miR mimics: 200,000 CD34^+ cells were freshly thawed and cultured in IMDM supplemented with 20% BIT 9500, and 100 ng/mL SCF. After 3 hours, cells were transfected with 8 μM of miR mimics, non-targeting miR (miR-NC), or without miR (No miR) using the Amaxa Nucleofector II with program U-08. […] Cells cultured in TPO-supplemented medium (100 ng/ml TPO), or co-cultured with MkMPs served as positive controls (TPO, MkMP). The medium was replaced one day after transfection. […] At day 13, cells were harvested for serotonin (5-HT), von willebrand factor (vWF), beta 1 tubulin (TUBB1), and DAPI staining, as described^7. The images were taken by ZEISS LSM 880 multiphoton confocal microscope. At day 16, cells were harvested for ploidy analysis by flow-cytometric analysis as described by Lindsey and Papoutsakis (Br J Haematol. 2011; 152(4):469-484).
To determine if there is a dose effect of miR mimics on Mk differentiation of HSPCs, using CD41 expression as the key early Mk-differentiation marker, we carried out a pilot study with two donor CD34^+-cell samples. CD34^+ HSPCs were transfected with high (8 μM) or low (2 μM) concentrations of miR-486-5p or miR-22-3p (generally known as miR-22) mimics were and cultured without TPO. […]
For orientation: Flow cytometry measures light scatter and fluorescence of single cells or particles in a stream.

Test [2] deals with CD34+ HSPCs. Kind of test: Signaling-inhibitor experiments: MkMP-induced Mk differentiation of inhibitor-pretreated CD34+ HSPCs. The following applies: for percent of cells CD34−CD41+: day 12, representative quadrant plots (FIG. 11E); for fraction of cells CD34+CD41−: day 7, representative quadrant plots (FIG. 11E).
Experimental: Signaling-inhibitor experiments: 60,000 CD34^+ HSPCs were pretreated with signaling inhibitors for 30 min, followed by co-culture with MkMPs (30 MPs per cell) in IMDM supplemented with 10% BIT 9500 and 50 ng/mL SCF. Inhibitors were replenished at days 3 and 7. At day 4, 7 and 12, cells were harvested for flow cytometric analysis of CD41, CD42b, and CD34 expression. Total-cell and Mk counts were measured at day 7.
To further investigate the effects of MkMPs in promoting megakaryocytic differentiation of CD34^+ HSPCs, and how this might relate to the miR content of MkMPs, we next probed likely signaling pathways using kinase inhibitors. […] Briefly, CD34^+ HSPCs were pretreated with kinase inhibitors of chosen signaling pathways (JNK, p38, MEK, PI3K, Akt and mTOR inhibitors, Table 6) for 30 min before they were co-cultured with MkMPs at the ratio of 10 MkMPs/cell. Inhibitors were replenished at days 3 and 7. CD41, CD42b and CD34 expression, and cell numbers were measured at days 4, 7, and 12.
Test [3] deals with PTEN. Kind of test: PTEN protein expression by flow cytometry in CD34+ HSPCs. The following applies: JNK inhibitor pretreatment, MkMP co-culture 24 hours (FIG. 13A). In kind it is cell-based, human. As to the method:
Cells were fixed in 4% paraformaldehyde for 15 min at room temperature, followed by the permeabilization in 90% methanol for 30 min at 4° C. After washing in PBS, cells were stained with Alexa 647-conjugated anti-mTOR (#5048S), PE-conjugated anti-Akt (#8790S), or Alexa 488-conjugated anti-p-Akt (#4071S) antibodies from Cell Signaling, or Alexa 647-conjugated anti-p-mTOR (#564242) from BD bioscience, for 1 hour at room temperature, followed by flow-cytometric analysis.
Phosphatase and TENsin homolog (PTEN) is a negative regulator of PI3K/Akt signaling in HSC development. Loss of PTEN results in enhanced cellular proliferation and megakaryopoiesis due to overactive of PI3K/Akt signaling. We hypothesized that activation of PI3K/Akt/mTOR signaling by MkMPs might be PTEN mediated. We thus examined the mRNA level of PTEN by quantitative PCR, and PTEN protein level by flow cytometry and immunoblotting. The impact on PTEN mRNA levels appears higher than that on protein levels. Compared to the vehicle control, PTEN protein or mRNA levels were around 10% or 30% lower, respectively, in HSPCs co-cultured with MkMPs (FIGS. 13A and 13B). […] These statistically-significant but relatively low-impact effects on PTEN protein expression would be expected given that the measurements were done within the first 24 hours of the co-culture, rather than late in the co-culture.

For test [4], the system named is PTEN. Kind of test: PTEN mRNA level by qRT-PCR in CD34+ HSPCs. In kind it is cell-based, human. Conditions: JNK inhibitor pretreatment, MkMP co-culture 24 hours (FIG. 13B). The protocol:
Quantitative reverse transcription PCR (qRT-PCR): CD34^+ HSPCs pretreated with JNK inhibitor or solution without an inhibitor were co-cultured with MkMPs, non-targeting miR-loaded MkMPs, miR-486-5p inhibitor-loaded MkMPs at 30 MPs per cell, or vehicle control. At 24 hr, cells were harvested and total RNA was isolated, reversed transcribed for qPCR assay as described by Kao and Papoutsakis (Sci Adv. 2018; 4:eaau6762). qPCR assays for PTEN and GAPDH were performed with PerfeCTa SYBR Green Supermix (QuantaBio) and the following primers: Forward (5′-[…]-3′) (SEQ ID NO: 1), Reverse (5′-[…]-3′) (SEQ ID NO: 2) for PTEN, and Forward (5′-[…]-3′) (SEQ ID NO: 3), Reverse (5′-[…]-3′) (SEQ ID NO: 4) for GAPDH. PTEN mRNA level were quantified by normalized to GAPDH mRNA level as the reference gene.
Phosphatase and TENsin homolog (PTEN) is a negative regulator of PI3K/Akt signaling in HSC development. Loss of PTEN results in enhanced cellular proliferation and megakaryopoiesis due to overactive of PI3K/Akt signaling. We hypothesized that activation of PI3K/Akt/mTOR signaling by MkMPs might be PTEN mediated. We thus examined the mRNA level of PTEN by quantitative PCR, and PTEN protein level by flow cytometry and immunoblotting. The impact on PTEN mRNA levels appears higher than that on protein levels. […]
A general note: Real-time PCR tracks product formation cycle by cycle.

The mark [5] stands for this setting: day 7, MkMP co-culture, inhibitor 10 uM (FIG. 11A).

“TPO: recombinant human thrombopoietin, 100 ng/ml, positive control”: the “percent of cells expressing CD41” value in test [1] (day 13, electroporated CD34+ cells, miR mimics without TPO, TPO 100 ng/ml or MkMP co-culture as positive controls (FIGS. 7A, 7B)) came to 56%. Moreover, the “percent CD41+CD42b+ double positive cells” value in test [1] (day 13, representative quadrant plots (FIG. 7D)) is on record as 38.9%.

Turning to `O=c1cc(N2CCOCC2)oc2c(-c3ccccc3)cccc12` [LY-294002], in test [2], the “percent of cells CD34−CD41+” value was 16.5%.

Consider `Oc1c2ccccc2c2c3c(cccc13)N=N2` [SP600125], for which the “PTEN protein level above vehicle-control level” value in test [3] stood at 17%. Further, in test [4], the “PTEN mRNA level above vehicle-control level” value was determined as 260%. The CD41 expression in test [2] (setting [5]) is reported as 32.8%. In test [2], the “fraction of cells CD34+CD41−” value amounted to 52.1% and the “percent of cells CD34−CD41+” value is reported as 12.6%.

Turning to `CO[C@H]1C[C@@H]2CC[C@@H](C)[C@@](O)(O2)C(=O)C(=O)N2CCCC[C@H]2C(=O)O[C@H]([C@H](C)C[C@@H]2CC[C@@H](O)[C@H](OC)C2)CC(=O)[C@H](C)/C=C(\C)[C@@H](O)[C@@H](OC)C(=O)[C@H](C)C[C@H](C)/C=C/C=C/C=C/1C` [Rapamycin], in test [2] (setting [5]), the CD41 expression was determined as 32.1%. Also, in test [2], the “fraction of cells CD34+CD41−” value was 48.3% and the “percent of cells CD34−CD41+” value worked out at 6.0%.

As to `COC[C@H]1OC(=O)c2coc3c2[C@@]1(C)C1=C(C3=O)[C@@H]2CCC(=O)[C@@]2(C)C[C@H]1OC(C)=O` [Wortmannin], the “percent of cells CD34−CD41+” value in test [2] is given as 25.3%.

Take `C[S+]([O-])c1ccc(-c2nc(-c3ccncc3)c(-c3ccc(F)cc3)[nH]2)cc1` (centres unmarked) [SB203580]: in test [2], the “fraction of cells CD34+CD41−” value is 43.4%. For the same compound, the CD41 expression result in test [2] (day 12, MkMP co-culture, compared to MkMP control (FIG. 11B)) was “significantly suppressed CD41 expression”.
